In patent US20180370927A1, “MICROBIOCIDAL OXADIAZOLE DERIVATIVES” (SYNGENTA PARTICIPATIONS AG, priority 2015, published 2018):

Legend:
[1] = test system: Puccinia recondita f. Sp. Tritici; experiment: Puccinia recondita f. sp. tritici / wheat / leaf disc preventative (brown rust); format: in vivo; settings: foliar, 200 ppm in the applied formulation, wheat leaf segments, preventative, assessed 7 to 9 days after application, read-out: disease control compared to untreated control leaf disks
How it was run: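 Wheat cv. Kanzler leaf segments on agar sprayed with formulated compound in water, inoculated with rust spores 1 day later. Incubated at 19° C, 75% rh, 12 h light/12 h dark; percent disease control versus untreated scored 7 to 9 days after application; tested at 200 ppm.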

Phakopsora pachyrhizi = Phakopsora pachyrhizi / soybean / leaf disc preventative (Asian soybean rust); format: in vivo; settings: foliar, 200 ppm in the applied formulation, soybean leaf disks, assessed 12 to 14 days after application, read-out: disease control compared to untreated control leaf disks
How it was run: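 Soybean leaf discs on water agar were sprayed with formulated compound diluted in water, then inoculated one day later with spore suspension on the lower leaf surface. Held 24-36 h dark at 20° C., 75% RH, then 12 h light/day; percent disease control versus untreated scored 12 to 14 days after application.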

[2] = test system: Puccinia recondita f. Sp. Tritici; experiment: Puccinia recondita f. sp. tritici / wheat / leaf disc curative (brown rust); format: in vivo; settings: foliar, 200 ppm in the applied formulation, wheat leaf segments, curative (applied 1 day after inoculation), assessed 6 to 8 days after application, read-out: disease control compared to untreated control leaf disks
How it was run: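 Curative treatment: formulated compound in water was applied 1 day post-inoculation to spore-inoculated wheat cv. Kanzler segments held on agar. Segments stayed at 19° C and 75% relative humidity (12 h photoperiod after application), and disease control relative to untreated checks was assessed 6 to 8 days later.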

[3] = test system: Glomerella lacenarium (Colletotrichum lacenarium); experiment: Glomerella lacenarium (Colletotrichum lacenarium) liquid culture / cucumber / preventative (anthracnose); format: cell-based; settings: 20 ppm in the applied formulation, liquid culture in PDB, 24° C., 3 to 4 days after application, read-out: disease control (inhibition of growth, photometric) compared to untreated control
How it was run: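 At 20 ppm in the applied formulation, compounds were mixed with fungal spores in potato dextrose broth and held at 24° C. After 3–4 days, photometric growth measurement gave percent antifungal activity relative to untreated control.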

CCN(Cc1ccc(-c2noc(C(F)(F)F)n2)cc1)C(=O)C(=O)NC [Compound 4.101, N′-ethyl-N-methyl-N′-[[4-[5-(trifluoromethyl)-1,2,4-oxadiazol-3-yl]phenyl]methyl] oxamide]
≥ 80%: pest or weed control at 200 ppm [1] | pest or weed control at 200 ppm (Phakopsora pachyrhizi) | pest or weed control at 200 ppm [2] | inhibition at 20 ppm [3]

O=C(NCc1ccc(-c2noc(C(F)(F)F)n2)c(F)c1)C(=O)c1cccs1 [Compound 1.44, N-[[3-fluoro-4-[5-(trifluoromethyl)-1,2,4-oxadiazol-3-yl]phenyl]methyl]-2-oxo-2-(2-thienyl)acetamide]
≥ 80%: pest or weed control at 200 ppm [1] | pest or weed control at 200 ppm (Phakopsora pachyrhizi) | pest or weed control at 200 ppm [2] | inhibition at 20 ppm [3]

CC(C)C(=O)C(=O)N(C)Cc1ccc(-c2noc(C(F)(F)F)n2)cc1 [Compound 1.95, N,3-dimethyl-2-oxo-N-[[4-[5-(trifluoromethyl)-1,2,4-oxadiazol-3-yl]phenyl]methyl]butanamide]
≥ 80%: pest or weed control at 200 ppm [1] | pest or weed control at 200 ppm (Phakopsora pachyrhizi) | pest or weed control at 200 ppm [2] | inhibition at 20 ppm [3]

CCC(=O)C(=O)N(Cc1ccc(-c2noc(C(F)(F)F)n2)cc1)C1CC1 [Compound 1.100, N-cyclopropyl-2-oxo-N-[[4-[5-(trifluoromethyl)-1,2,4-oxadiazol-3-yl]phenyl]methyl]butanamide]
≥ 80%: pest or weed control at 200 ppm [1] | pest or weed control at 200 ppm (Phakopsora pachyrhizi) | pest or weed control at 200 ppm [2] | inhibition at 20 ppm [3]

CCC(=O)C(=O)NCc1ccc(-c2noc(C(F)(F)F)n2)c(F)c1 [Compound 1.78, N-[[3-fluoro-4-[5-(trifluoromethyl)-1,2,4-oxadiazol-3-yl]phenyl]methyl]-2-oxo-butanamide]
≥ 80%: pest or weed control at 200 ppm [1] | pest or weed control at 200 ppm (Phakopsora pachyrhizi) | pest or weed control at 200 ppm [2] | inhibition at 20 ppm [3]

CC(C)(C)C(=O)C(=O)NCc1ccc(-c2noc(C(F)(F)F)n2)c(F)c1 [Compound 1.45, N-[[3-fluoro-4-[5-(trifluoromethyl)-1,2,4-oxadiazol-3-yl]phenyl]methyl]-3,3-dimethyl-2-oxo-butanamide]
≥ 80%: pest or weed control at 200 ppm [1] | pest or weed control at 200 ppm (Phakopsora pachyrhizi) | pest or weed control at 200 ppm [2] | inhibition at 20 ppm [3]

CCN(Cc1ccc(-c2noc(C(F)(F)F)n2)cc1)C(=O)C(=O)C1CC1 [Compound 1.93, 2-cyclopropyl-N-ethyl-2-oxo-N-[[4-[5-(trifluoromethyl)-1,2,4-oxadiazol-3-yl]phenyl]methyl]acetamide]
≥ 80%: pest or weed control at 200 ppm [1] | pest or weed control at 200 ppm (Phakopsora pachyrhizi) | pest or weed control at 200 ppm [2] | inhibition at 20 ppm [3]

CCCC(=O)C(=O)N(CC)Cc1ccc(-c2noc(C(F)(F)F)n2)cc1 [Compound 1.19, N-ethyl-2-oxo-N-[[4-[5-(trifluoromethyl)-1,2,4-oxadiazol-3-yl]phenyl]methyl]pentanamide]
≥ 80%: pest or weed control at 200 ppm [1] | pest or weed control at 200 ppm (Phakopsora pachyrhizi) | pest or weed control at 200 ppm [2] | inhibition at 20 ppm [3]

CCCC(=O)C(=O)N(Cc1ccc(-c2noc(C(F)(F)F)n2)cc1)C1CC1 [Compound 1.4, N-cyclopropyl-2-oxo-N-[[4-[5-(trifluoromethyl)-1,2,4-oxadiazol-3-yl]phenyl]methyl]pentanamide]
≥ 80%: pest or weed control at 200 ppm [1] | pest or weed control at 200 ppm (Phakopsora pachyrhizi) | pest or weed control at 200 ppm [2] | inhibition at 20 ppm [3]

CCC(=O)C(=O)N(C)Cc1ccc(-c2noc(C(F)(F)F)n2)cc1 [Compound 1.98, N-methyl-2-oxo-N-[[4-[5-(trifluoromethyl)-1,2,4-oxadiazol-3-yl]phenyl]methyl]butanamide]
≥ 80%: pest or weed control at 200 ppm [1] | pest or weed control at 200 ppm (Phakopsora pachyrhizi) | pest or weed control at 200 ppm [2] | inhibition at 20 ppm [3]

NC(=O)C(=O)N(O)Cc1ccc(-c2noc(C(F)(F)F)n2)cc1 [Compound 4.91, N′-hydroxy-N′-[[4-[5-(trifluoromethyl)-1,2,4-oxadiazol-3-yl]phenyl]methyl] oxamide]
≥ 80%: pest or weed control at 200 ppm [1] | pest or weed control at 200 ppm (Phakopsora pachyrhizi) | pest or weed control at 200 ppm [2] | inhibition at 20 ppm [3]

O=C(NCc1ccc(-c2noc(C(F)(F)F)n2)cc1F)C(=O)c1cccs1 [Compound 1.39, N-[[2-fluoro-4-[5-(trifluoromethyl)-1,2,4-oxadiazol-3-yl]phenyl]methyl]-2-oxo-2-(2-thienyl)acetamide]
≥ 80%: pest or weed control at 200 ppm [1] | pest or weed control at 200 ppm (Phakopsora pachyrhizi) | pest or weed control at 200 ppm [2] | inhibition at 20 ppm [3]

CN(C(=O)C(=O)NCc1ccc(-c2noc(C(F)(F)F)n2)cc1)C1CCOC1 (stereo not shown) [Compound 4.41, N′-methyl-N′-tetrahydrofuran-3-yl-N-[[4-[5-(trifluoromethyl)-1,2,4-oxadiazol-3-yl]phenyl]methyl] oxamide]
≥ 80%: pest or weed control at 200 ppm [1] | pest or weed control at 200 ppm (Phakopsora pachyrhizi) | pest or weed control at 200 ppm [2] | inhibition at 20 ppm [3]

CCN(Cc1ccc(-c2noc(C(F)(F)F)n2)cc1)C(=O)C(=O)N(C)C [Compound 4.27, N′-ethyl-N,N-dimethyl-N′-[[4-[5-(trifluoromethyl)-1,2,4-oxadiazol-3-yl]phenyl]methyl] oxamide]
≥ 80%: pest or weed control at 200 ppm [1] | pest or weed control at 200 ppm (Phakopsora pachyrhizi) | pest or weed control at 200 ppm [2] | inhibition at 20 ppm [3]

CC(C)N(Cc1ccc(-c2noc(C(F)(F)F)n2)cc1)C(=O)C(N)=O [Compound 4.89, N′-isopropyl-N′-[[4-[5-(trifluoromethyl)-1,2,4-oxadiazol-3-yl]phenyl]methyl] oxamide]
≥ 80%: pest or weed control at 200 ppm [1] | pest or weed control at 200 ppm (Phakopsora pachyrhizi) | pest or weed control at 200 ppm [2] | inhibition at 20 ppm [3]

CC(C)(C)C(=O)C(=O)NCc1ccc(-c2noc(C(F)(F)F)n2)c(F)c1F [Compound 1.49, N-[[2,3-difluoro-4-[5-(trifluoromethyl)-1,2,4-oxadiazol-3-yl]phenyl]methyl]-3,3-dimethyl-2-oxo-butanamide]
≥ 80%: pest or weed control at 200 ppm [1] | pest or weed control at 200 ppm (Phakopsora pachyrhizi) | pest or weed control at 200 ppm [2] | inhibition at 20 ppm [3]

CON(Cc1ccc(-c2noc(C(F)(F)F)n2)cc1F)C(=O)C(=O)c1ccco1 [Compound 1.83, N-[[2-fluoro-4-[5-(trifluoromethyl)-1,2,4-oxadiazol-3-yl]phenyl]methyl]-2-(2-furyl)-N-methoxy-2-oxo-acetamide]
≥ 80%: pest or weed control at 200 ppm [1] | pest or weed control at 200 ppm (Phakopsora pachyrhizi) | pest or weed control at 200 ppm [2] | inhibition at 20 ppm [3]

CC(C)C(=O)C(=O)N(Cc1ccc(-c2noc(C(F)(F)F)n2)cc1)C1CC1 [Compound 1.97, N-cyclopropyl-3-methyl-2-oxo-N-[[4-[5-(trifluoromethyl)-1,2,4-oxadiazol-3-yl]phenyl]methyl]butanamide]
≥ 80%: pest or weed control at 200 ppm [1] | pest or weed control at 200 ppm (Phakopsora pachyrhizi) | pest or weed control at 200 ppm [2] | inhibition at 20 ppm [3]

O=C(C(=O)N(Cc1ccc(-c2noc(C(F)(F)F)n2)cc1)C1CC1)C1CC1 [Compound 1.92, N,2-dicyclopropyl-2-oxo-N-[[4-[5-(trifluoromethyl)-1,2,4-oxadiazol-3-yl]phenyl]methyl]acetamide]
≥ 80%: pest or weed control at 200 ppm [1] | pest or weed control at 200 ppm (Phakopsora pachyrhizi) | pest or weed control at 200 ppm [2] | inhibition at 20 ppm [3]
